In patent publication US20080288176A1 (priority 2005, published 2008):

Assay: Plasma NAPROXEN AUC0-6h after oral dosing
Assay type: in vivo, rat
Details: male Wistar rats
Description: Table 1 is a summary of the protocol for a study which was conducted in male Wistar rats weighing 275-300 grams. The animals were allowed to acclimatize for at least five days prior to the commencement of the study. The study protocol was approved by the local animal ethics committee.

AUC0-6h of NAPROXEN compared with parent drug (in words): much lower than for NAPROXEN parent drug
Compound: COc1ccc2cc([C@H](C)C(=O)OCCCCO[N+](=O)[O-])ccc2c1 [AZD 3582]
